In US6645915B1, “Substituted 1,3,5- triazines” (Nihon Bayer Agrochem K. K., priority 1998, dated 2003):

Experiments:
weeds [1] = experiment: Post-emergence test B-1; assay type: in vivo; settings: post-emergence test B-1, in words
Experimental: (§1) To produce a suitable preparation of active compound, 1 part by weight of active compound is mixed with the stated amount of solvent, the stated amount of emulsifier is added and the concentrate is diluted with water to the desired concentration.
(§2) Test plants of a height of 5-15 cm are sprayed with the preparation of active compound such that the particular amounts of active compound desired are applied per unit area. The concentration of the spray liquor is chosen so that the particular amounts of active compound desired are applied in 1000 l of water/ha.
(§3) After three weeks, the degree of damage to the plants is rated in % damage in comparison to the development of the untreated control.
(§4) 0%=no effect (like untreated control)

[2] = logP by reversed-phase HPLC (EEC Directive 79/831 Annex V.A8); assay type: physicochemical; settings: acetonitrile gradient; for logP: HPLC, reversed-phase C 18, 43° C., acidic range a): 0.1% aqueous phosphoric acid; for chromatographic logP: reversed-phase C18 HPLC column; HPLC, reversed-phase C 18, 43° C., acidic range a): 0.1% aqueous phosphoric acid
Experimental: The logP values given in Table 1 were determined in accordance with EEC Directive 79/831 Annex V.A8 by HPLC (High Performance Liquid Chromatography) using a reversed-phase column (C 18). Temperature: 43° C.
(a) Mobile phase for the determination in the acidic range: 0.1% aqueous phosphoric acid, acetonitrile; linear gradient from 10% acetonitrile to 90% acetonitrile—the corresponding data in Table 1 are labelled^a).
Calibration was carried out using unbranched alkan-2-ones (having from 3 to 16 carbon atoms) with known logP values (the logP values were determined using the retention times, by linear interpolation between two successive alkanones).

Amaranthus [3] = experiment: Post-emergence test B-1 / greenhouse; assay type: in vivo; settings: 500 g of ai./ha, rated after three weeks, 0% = no effect, 100% = total destruction
Experimental: as §1, §2, §3, §4

Xanthium = experiment: Post-emergence test B-1 / greenhouse; assay type: in vivo; settings: 500 g of ai./ha, rated after three weeks, 0% = no effect, 100% = total destruction
Experimental: as §1, §2, §3, §4

Setaria = experiment: Post-emergence test B-1 / greenhouse; assay type: in vivo; settings: 500 g of ai./ha, rated after three weeks, 0% = no effect, 100% = total destruction
Experimental: as §1, §2, §3, §4

Sinapis = experiment: Post-emergence test B-1 / greenhouse; assay type: in vivo; settings: 500 g of ai./ha, rated after three weeks, 0% = no effect, 100% = total destruction
Experimental: as §1, §2, §3, §4

Maize [4] = experiment: Post-emergence test B-1 / greenhouse; assay type: in vivo; settings: 500 g of ai./ha, rated after three weeks, 0% = no effect, 100% = total destruction
Experimental: as §1, §2, §3, §4

[5] = system: Echinocloa crus galli, Setaria viridis, Amaranthus lividus and Polygonum blumei MEISSN; experiment: Post-emergence test B-2; assay type: in vivo; settings: post-emergence test B-2, plants in 2-leaf stage, rated after three weeks, in words
Experimental: as §1
Test plants (Echinocloa crus galli, Setaria viridis, Amaranthus lividus and Polygonum blumei MEISSN) which, on average, are in the 2-leaf stage, are sprayed with the preparation of active compound such that the particular amounts of active compound desired are applied per unit area.
as §3, §4

[6] = system: Echinocloa crus galli, Setaria viridis, Amaranthus lividus and Polygonum blumei MEISSN; experiment: Pre-emergence test A-2; assay type: in vivo; settings: pre-emergence test A-2, rated after four weeks, in words
Experimental: as §1
Seeds of the test plants (Echinocloa crus galli, Setaria viridis, Amaranthus lividus and Polygonum blumei MEISSN) are sown in normal soil. The soil is sprayed with the preparation of active compound such that the particular amount of active compound desired is applied per unit area.
After four weeks, the degree of damage to the plants is rated in % damage in comparison to the development of the untreated controls.
as §4

weeds [7] = experiment: Pre-emergence test A-1; assay type: in vivo; settings: pre-emergence test A-1, in words
Experimental: as §1
(§5) Seeds of the test plants are sown in normal soil. After about 24 hours, the soil is sprayed with the preparation of active compound such that the particular amount of active compound desired is applied per unit area. The concentration of the spray liquor is chosen so that the particular amount of active compound desired is applied in 1000 litres of water per hectare.
as §3, §4

Amaranthus [8] = experiment: Pre-emergence test A-1 / greenhouse; assay type: in vivo; settings: 500 g of ai./ha, rated after three weeks, 0% = no effect, 100% = total destruction
Experimental: as §1, §5, §3, §4

Maize [9] = experiment: Pre-emergence test A-1 / greenhouse; assay type: in vivo
Experimental: as §1, §5, §3, §4

Abutilon [10] = experiment: Pre-emergence test A-1 / greenhouse; assay type: in vivo; settings: 500 g of ai./ha, rated after three weeks, 0% = no effect, 100% = total destruction
Experimental: as §1, §5, §3, §4

Abutilon [11] = experiment: Post-emergence test B-1 / greenhouse; assay type: in vivo; settings: 500 g of ai./ha, rated after three weeks, 0% = no effect, 100% = total destruction
Experimental: as §1, §2, §3, §4

Molecule: CC(Nc1nc(N)nc(C(F)(F)Cl)n1)C1CCCCC1 (racemic) [Example 6]
- action against weeds (weeds [1]): strong action
- logP [2]: logP = 3.51^a) (racemate)
- % damage, Amaranthus (Amaranthus [3]): 100%
- % damage, Xanthium (Xanthium): 100%
- % damage, Setaria (Setaria): 100%
- % damage, Sinapis (Sinapis): 100%

Molecule: CC(Nc1nc(N)nc(C(C)(C)F)n1)C1CCCCC1 (racemic) [Example 7]
- action against weeds (weeds [1]): strong action
- logP [2]: logP = 1.93^a) (racemate)
- % damage, Amaranthus (Amaranthus [3]): 100%
- % damage, Xanthium (Xanthium): 100%
- % damage, Setaria (Setaria): 100%
- % damage, Sinapis (Sinapis): 100%

Molecule: CCC(=O)Nc1nc(NC(C)C2CCCCC2)nc(C(F)(F)Cl)n1 (racemic) [Example 8]
- action against weeds (weeds [1]): strong action
- logP [2]: logP = 4.23^a) (racemate)
- % damage, Amaranthus (Amaranthus [3]): 100%
- % damage, Xanthium (Xanthium): 100%
- % damage, Setaria (Setaria): 100%
- % damage, Sinapis (Sinapis): 100%

Molecule: CCC(=O)Nc1nc(NC(C)C2CCCCC2)nc(C(C)(C)F)n1 (racemic) [Example 9]
- action against weeds (weeds [1]): strong action
- logP [2]: logP = 3.30^a) (racemate)
- % damage, Amaranthus (Amaranthus [3]): 95%
- % damage, Maize (Maize [4]): 30%
- % damage, Setaria (Setaria): 90%
- % damage, Sinapis (Sinapis): 100%

Molecule: CCCC(C)Nc1nc(N)nc(C(C)(C)F)n1 (racemic) [Example 28]
- action against the abovementioned weeds [5]: strong action

Molecule: CC(C)CC(C)Nc1nc(N)nc(C(C)(C)F)n1 (racemic) [Example 29]
- action against the abovementioned weeds [5]: strong action

Molecule: CC(C)CCCC(C)Nc1nc(N)nc(C(C)(C)F)n1 (racemic) [Example 31]
- action against the abovementioned weeds [5]: strong action

Molecule: CCC(CC)Nc1nc(N)nc(C(C)F)n1 (racemic) [Example 32]
- action against the abovementioned weeds [6]: strong action

Molecule: C[C@H](Nc1nc(N)nc([C@@H](C)F)n1)C1CCCCC1 [Example 1, (R,S)-N′-(1-cyclohexyl-ethyl)-6-(1-fluoro-ethyl)-1,3,5-triazine-2,4-diamine]
- action against weeds (weeds [1]): strong action
- action against weeds (weeds [7]): strong action
- chromatographic logP [2]: 1.83
- % damage, Amaranthus (Amaranthus [8]): 100%
- tolerance by crop plants, such as maize (Maize [9]; pre-emergence test A-1, in words): tolerated very well
- % damage, Maize (Maize [9]; pre-emergence, 500 g of ai./ha, rated after three weeks, 0% = no effect, 100% = total destruction): 0%
- % damage, Abutilon (Abutilon [10]): 80%
- % damage, Amaranthus (Amaranthus [3]): 100%
- % damage, Xanthium (Xanthium): 100%
- % damage, Setaria (Setaria): 100%
- % damage, Sinapis (Sinapis): 100%

Molecule: CCC(=O)Nc1nc(N[C@@H](C)C2CCCCC2)nc([C@@H](C)F)n1 [Example 2, (R,S)-N-[4-(1-cyclohexyl-ethylamino)-6-(1-fluoro-ethyl)-1,3,5-triazin-2-yl]-propionamide]
- action against weeds (weeds [1]): strong action
- chromatographic logP [2]: 3.14
- % damage, Amaranthus (Amaranthus [3]): 100%
- % damage, Xanthium (Xanthium): 100%
- % damage, Setaria (Setaria): 100%
- % damage, Sinapis (Sinapis): 100%

Molecule: C[C@H](Nc1nc(NC=O)nc([C@@H](C)F)n1)C1CCCCC1 [Example 3, (R,S)-N-[4-(1-cyclohexyl-ethylamino)-6-(1-fluoro-ethyl)-1,3,5-triazin-2-yl]-formamide]
- action against weeds (weeds [1]): strong action
- chromatographic logP [2]: 3.04
- % damage, Amaranthus (Amaranthus [3]): 100%
- % damage, Setaria (Setaria): 100%
- % damage, Abutilon (Abutilon [11]): 90%
- % damage, Sinapis (Sinapis): 100%
- melting point: 127 °C

Molecule: CCC(=O)Nc1nc(N[C@H](C)C2CCCCC2)nc(C(C)F)n1 (stereo partly shown) [Example 15]
- logP [2]: logP = 3.11^a) (R enantiomer)

Molecule: CCC(=O)Nc1nc(N[C@H](C)C2CCCCC2)nc(C(C)(C)F)n1 [Example 16]
- logP [2]: logP = 3.25^a) (R enantiomer)

Molecule: CCC(=O)Nc1nc(N[C@H](C)C2CCCCC2)nc(C(Cl)Cl)n1 [Example 17]
- logP [2]: logP = 2.93^a) (R enantiomer)

Molecule: CCC(=O)Nc1nc(N[C@@H](C)C2CCCCC2)nc(C(C)F)n1 (stereo partly shown) [Example 21]
- logP [2]: logP = 3.11^a) (S enantiomer)

Molecule: CCC(=O)Nc1nc(N[C@@H](C)C2CCCCC2)nc(C(C)(C)F)n1 [Example 22]
- logP [2]: logP = 3.26^a) (S enantiomer)

Molecule: CCC(=O)Nc1nc(N[C@@H](C)C2CCCCC2)nc(C(Cl)Cl)n1 [Example 23]
- logP [2]: logP = 2.93^a) (S enantiomer)

Molecule: CCC(CC)Nc1nc(N)nc(C(C)(C)F)n1 [Example 33]
- action against the abovementioned weeds [6]: strong action

Molecule: CCC(CC)Nc1nc(NC(C)=O)nc(C(C)(C)F)n1 [Example 34]
- action against the abovementioned weeds [6]: strong action

Molecule: N-(1-ethylpropyl)-6-(1-fluoro-1-methylethyl)-1,3,5-triazine-2,4-diamine [Example 4]
- action against weeds (weeds [1]): strong action
- % damage, Amaranthus (Amaranthus [3]): 100%
- % damage, Xanthium (Xanthium): 100%
- % damage, Setaria (Setaria): 100%
- % damage, Sinapis (Sinapis): 100%

Molecule: N-acetyl-N′-(1-ethylpropyl)-6-(1-fluoro-1-methylethyl)-1,3,5-triazine-2,4-diamine [Example 5]
- action against weeds (weeds [1]): strong action
- % damage, Amaranthus (Amaranthus [3]): 100%
- % damage, Setaria (Setaria): 95%
- % damage, Abutilon (Abutilon [11]): 90%
- % damage, Sinapis (Sinapis): 95%
